Measured values published in the supplement of paper PMC6045584.
± gives the standard deviation of the averaged measurements.

Tests used:
SUNITINIB = compound: CCN(CC)CCNC(=O)c1c(C)[nH]c(/C=C2\C(=O)Nc3ccc(F)cc32)c1C [SUNITINIB]; assay: surviving fraction relative to DMSO-only wells; higher = less growth inhibition; details: exposure time: 5 days
Procedure, shortened: (§1)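 Lines were retained only if, across three screens, replicate Pearson r was >0.7 and median Z' was >0.3. Viability was measured as CellTiter-Glo luminescence and reported as surviving fraction relative to the median of DMSO-only wells. Readings followed 10 minutes at room temperature, after log-phase tumour cells seeded at 250–500 per well in 384-well plates had been exposed, from 24 hours after seeding, continuously for five days to inhibitors at 0.5, 1, 5, 10, 50, 100, 500 and 1000 nM.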

[1] = compound: O=C(NOCC1CC1)c1ccc(F)c(F)c1Nc1ccc(I)cc1Cl; assay: as above; details: exposure time: 5 days
Procedure, shortened: as §1

Test System | surviving fraction (SUNITINIB; 0.5 nM) | surviving fraction (SUNITINIB; 1 nM) | surviving fraction (SUNITINIB; 5 nM) | surviving fraction (SUNITINIB; 500 nM) | surviving fraction (SUNITINIB; 1000 nM) | surviving fraction ([1]; 0.5 nM) | surviving fraction ([1]; 1 nM) | surviving fraction ([1]; 5 nM) | surviving fraction ([1]; 10 nM) | surviving fraction ([1]; 50 nM) | surviving fraction ([1]; 100 nM) | surviving fraction ([1]; 500 nM) | surviving fraction ([1]; 1000 nM) | surviving fraction (SUNITINIB; 10 nM) | surviving fraction (SUNITINIB; 100 nM) | surviving fraction (SUNITINIB; 50 nM)
MHM BONE | 0.956 ± 0.038 | 0.962 ± 0.021 | 0.9887 ± 0.0061 | 0.881 ± 0.021 | 0.774 ± 0.021 | 0.947 ± 0.024 | 0.906 ± 0.095 | 0.992 ± 0.013 | 1.01 ± 0.015 | 0.974 ± 0.028 | 0.971 ± 0.048 | 0.926 ± 0.022 | 0.931 ± 0.032 |  |  | 
SNU475 LIVER |  | 0.729 ± 0.052 | 0.814 ± 0.049 | 0.752 ± 0.022 | 0.193 ± 0.01 | 0.432 ± 0.042 | 0.908 ± 0.038 | 0.802 ± 0.022 | 0.941 ± 0.018 | 0.439 ± 0.015 | 0.883 ± 0.013 | 0.676 ± 0.018 | 0.741 ± 0.039 | 0.371 ± 0.031 | 0.8163 ± 0.0045 | 
HCT15 LARGE INTESTINE | 0.882 ± 0.015 | 0.73 ± 0.028 | 0.816 ± 0.034 | 0.855 ± 0.08 | 0.119 ± 0.015 | 0.526 ± 0.042 | 0.912 ± 0.023 | 0.849 ± 0.05 | 0.936 ± 0.066 | 0.608 ± 0.037 | 0.914 ± 0.039 | 0.784 ± 0.0076 | 0.823 ± 0.05 | 0.449 ± 0.021 |  | 0.952 ± 0.049
DU4475 BREAST | 0.742 ± 0.17 | 0.797 ± 0.12 | 0.716 ± 0.14 | 0.428 ± 0.18 | 0.1 ± 0.029 | 0.859 ± 0.24 | 0.791 ± 0.12 | 0.794 ± 0.29 | 0.674 ± 0.064 | 0.49 ± 0.15 | 0.199 ± 0.11 | 0.0277 ± 0.0074 | 0.0263 ± 0.0078 | 0.771 ± 0.18 | 0.649 ± 0.21 | 0.668 ± 0.12
SJSA1 BONE |  | 0.869 ± 0.017 |  | 0.8283 ± 0.0078 | 0.579 ± 0.011 | 1.05 ± 0.036 | 1.06 ± 0.035 | 1.119 ± 0.0046 | 1.11 ± 0.013 | 0.968 ± 0.025 | 0.925 ± 0.027 | 0.742 ± 0.028 | 0.591 ± 0.046 | 0.872 ± 0.022 |  | 1.02 ± 0.038
HCC78 LUNG | 0.831 ± 0.076 | 0.925 ± 0.054 | 0.95 ± 0.099 | 1.67 ± 0.23 | 0.633 ± 0.1 | 0.787 ± 0.12 | 0.836 ± 0.085 | 0.841 ± 0.11 | 0.832 ± 0.25 | 0.898 ± 0.17 | 0.885 ± 0.15 | 0.486 ± 0.058 | 0.632 ± 0.097 | 0.46 ± 0.089 | 1.34 ± 0.44 | 1.24 ± 0.33
HCC1395 BREAST | 0.977 ± 0.037 | 0.829 ± 0.066 | 0.9396 ± 0.0017 | 0.971 ± 0.046 | 1.01 ± 0.12 | 0.997 ± 0.2 | 0.963 ± 0.14 | 0.951 ± 0.17 | 0.958 ± 0.2 | 0.838 ± 0.14 | 0.96 ± 0.052 | 0.86 ± 0.075 | 0.979 ± 0.042 | 0.969 ± 0.094 | 1.06 ± 0.17 | 1.09 ± 0.11
NCIH441 LUNG | 0.963 ± 0.039 |  |  |  | 0.764 ± 0.079 | 0.939 ± 0.093 | 0.968 ± 0.084 | 0.945 ± 0.026 | 0.984 ± 0.041 | 0.909 ± 0.013 | 0.846 ± 0.031 | 0.722 ± 0.023 | 0.757 ± 0.053 | 0.952 ± 0.029 | 0.977 ± 0.079 | 1.02 ± 0.043
VCAP PROSTATE | 0.976 ± 0.065 | 1 ± 0.088 | 1.09 ± 0.07 | 0.734 ± 0.034 | 0.519 ± 0.06 | 0.925 ± 0.048 | 0.984 ± 0.082 | 0.923 ± 0.042 | 1.01 ± 0.12 | 0.86 ± 0.079 | 1.08 ± 0.068 | 1.05 ± 0.13 | 0.975 ± 0.0027 | 1.02 ± 0.038 | 1.09 ± 0.099 | 1.06 ± 0.077
